A word on the EC50: it is the midpoint of the concentration-response curve. High values mean weaker potency, low ones greater potency.

In assay [1] the test system is spontaneously beating right atrium. Nature of the assay: Activity on isolated rat atria: rate of spontaneously beating right atrium. The settings on record: 32°C; for Emax: maximal effect with respect to isoprenaline maximum (isoprenaline 10^-7M = 1), Krebs solution, read-out: Rate Intrinsic activity; for EC50: molar concentration producing 50% of the compound's own maximum response. On the set-up: species or system Sprague-Dawley male rats. Here is the method: (§1) Sprague-Dawley male rats (300-400 g) are killed and the right and left atria dissected out independently and mounted on a combined tissue holder/electrode. The tissues are then immersed in a glass bath containing Krebs solution maintained at 32°C. The rate of the spontaneously beating right atrium (via an isometric transducer and a ratemeter) and the tension of the electrically paced left atrium (via an isometric transducer)are recorded on a M19 chart recorder.
(§2) After an initial stabilization period, the tissues are exposed to a maximal concentration of isoprenaline (10^-7M). The tissues are then washed several times until rate and tension return to baseline level. A dose-response curve to the test compound is then carried out.
(§3) Responses to each concentration of test compound are expressed as a percentage of the maximal responses to isoprenaline. Results are given in the form of (a) intrinsic activity (maximal effect of test compound with respect to isoprenaline maximum, i.e. isoprenaline intrinsic activity = 1) and (b) EC50 (the molar concentration at which the test compound produces 50% of its own maximum response).

Assay [2] concerns electrically paced left atrium. Nature of the assay: Activity on isolated rat atria: tension of electrically paced left atrium. On the set-up: species or system Sprague-Dawley male rats. The settings on record: 32°C; for Emax: maximal effect with respect to isoprenaline maximum (isoprenaline 10^-7M = 1), Krebs solution, read-out: Tension Intrinsic activity; for EC50: molar concentration producing 50% of the compound's own maximum response. Here is the method: as §1, §2, §3

Assay [3] deals with left ventricular pressure (LVP). Kind of assay: Assessment of inotropic activity in conscious cats. In kind it is in vivo. The settings on record: 0.2 mg/kg p.o., gelatin capsule, recording 6 hours post dosing. Here is the method:
Male 3-4.5 kg cats, bred in-house, are implanted with a polythene cannula in the left ventricle which is exte- riorised at the back of the neck by means of a small teflon valve. Recordings are made via a pressure transducer attached by means of a length of polyethylene tubing to the cat neck valve.
During an initial 1 hour stabilisation period, steady baseline recordings are obtained. The test compound, contained in a gelatin capsule, is then administered orally. Recording is normally carried out for 6 hours post dosing.
The maximal percentage change in dp/dt over initial baseline level is used as the index of inotropic activity. Chronotropic activity is taken as the maximal percentage change in HR over initial baseline level.

Regarding `CNC(=O)COc1ccc(OCC(C)NCC(O)COc2ccc(O)cc2)cc1` (stereo not shown) [Example 1, N-methyl 4-[2-[3-(4-hydroxyphenoxy)-2-hydroxypropylamino]-2-methylethoxy]phenoxyacetamide], in assay [1], the Emax turned out to be 94% and a half-maximal response (EC50) required 10 nM. Moreover, in assay [2], the Emax was 88% and the midpoint of the response, the EC50, lay at 25 nM. In addition, the “Peak HR” value in assay [3] (maximal percentage change in HR over initial baseline (chronotropic activity)) worked out at 0%. The same molecule came in with a Peak dp/dt in assay [3] (maximal percentage change in dp/dt over initial baseline (inotropic activity)) of 22%.
Take `CNC(=O)COc1ccc(OCCNCC(O)COc2ccc(O)cc2)cc1` (stereo not shown) [Example 2, N-methyl 4-[2-[3-(4-hydroxyphenoxy)-2-hydroxypropylamino]ethoxy]-phenoxyacetamide]: the Emax in assay [1] was 77%; in assay [2], 61%. The figures for the EC50 in assay [1] and in assay [2] were 68 nM and 150 nM, respectively.

Source of the values: EP0171760A2, “Substituted phenoxypropylaminoethoxyphenoxyacetamides” (BEECHAM GROUP PLC, priority 1984, dated 1986).
